Measurements published in PubChem BioAssay (NCI).
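Test compounds were applied to cells in 96-well plates for 48 hours at 5 doses. Definition used: TGI = concentration required for complete inhibition of growth.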

Experiments:
Experiment in all cases: DTP human tumour cell line panel, 48 h
[1] = test system: 786-0 renal
[2] = test system: A498 renal
[3] = test system: A549 NSCLC
[4] = test system: ACHN renal
[5] = test system: CAKI-1 renal
[6] = test system: CCRF-CEM leukemia
[7] = test system: COLO 205 colon
[8] = test system: DLD-1 colon
[9] = test system: DMS 114 small cell lung
[10] = test system: DMS 273 small cell lung
[11] = test system: EKVX NSCLC
[12] = test system: HCC-2998 colon
[13] = test system: HCT-116 colon
[14] = test system: HCT-15 colon
[15] = test system: HL-60(TB) leukemia
[16] = test system: HOP-18 NSCLC
[17] = test system: HOP-62 NSCLC
[18] = test system: HOP-92 NSCLC
[19] = test system: HT29 colon
[20] = test system: IGROV1 ovarian
[21] = test system: K-562 leukemia
[22] = test system: KM12 colon
[23] = test system: KM20L2 colon
[24] = test system: LOX IMVI melanoma
[25] = test system: M14 melanoma
[26] = test system: M19-MEL melanoma
[27] = test system: MALME-3M melanoma
[28] = test system: MOLT-4 leukemia
[29] = test system: NCI-H226 lung
[30] = test system: NCI-H23 lung
[31] = test system: NCI-H460 lung
[32] = test system: NCI-H522 lung
[33] = test system: OVCAR-3 ovarian
[34] = test system: OVCAR-4 ovarian
[35] = test system: OVCAR-5 ovarian
[36] = test system: OVCAR-8 ovarian
[37] = test system: RPMI-8226 leukemia
[38] = test system: RXF 393 renal
[39] = test system: SF-268 CNS
[40] = test system: SF-295 CNS
[41] = test system: SF-539 CNS
[42] = test system: SK-MEL-2 melanoma
[43] = test system: SK-MEL-28 melanoma
[44] = test system: SK-MEL-5 melanoma
[45] = test system: SK-OV-3 ovarian
[46] = test system: SN12C renal
[47] = test system: SNB-19 CNS
[48] = test system: SNB-75 CNS
[49] = test system: SNB-78 CNS
[50] = test system: SW-620 colon
[51] = test system: TK-10 renal
[52] = test system: U251 CNS
[53] = test system: UACC-257 melanoma
[54] = test system: UACC-62 melanoma
[55] = test system: UO-31 renal
[56] = test system: XF 498 CNS
[57] = test system: LXFL 529 NSCLC

O=C(CCCCCCCCC(=O)OCC1OC(n2cnc3c(=O)[nH]cnc32)C(O)C1O)OCC1OC(n2cnc3c(=O)[nH]cnc32)C(O)C1O (configuration not stated)
TGI [1]: > 100 µM | TGI [2]: > 100 µM | TGI [3]: > 100 µM | TGI [4]: > 100 µM | TGI [5]: > 100 µM | TGI [6]: > 100 µM | TGI [7]: > 100 µM | TGI [8]: > 100 µM | TGI [9]: > 100 µM | TGI [10]: > 100 µM | TGI [11]: > 100 µM | TGI [12]: > 100 µM | TGI [13]: > 100 µM | TGI [14]: > 100 µM | TGI [15]: > 100 µM | TGI [16]: > 100 µM | TGI [17]: > 100 µM | TGI [18]: > 100 µM | TGI [19]: > 100 µM | TGI [20]: > 100 µM | TGI [21]: > 100 µM | TGI [22]: > 100 µM | TGI [23]: > 100 µM | TGI [24]: > 100 µM | TGI [25]: > 100 µM | TGI [26]: > 100 µM | TGI [27]: > 100 µM | TGI [28]: > 100 µM | TGI [29]: > 100 µM | TGI [30]: > 100 µM | TGI [31]: > 100 µM | TGI [32]: > 100 µM | TGI [33]: > 100 µM | TGI [34]: > 100 µM | TGI [35]: > 100 µM | TGI [36]: > 100 µM | TGI [37]: > 100 µM | TGI [38]: > 100 µM | TGI [39]: > 100 µM | TGI [40]: > 100 µM | TGI [41]: > 100 µM | TGI [42]: > 100 µM | TGI [43]: > 100 µM | TGI [44]: > 100 µM | TGI [45]: > 100 µM | TGI [46]: > 100 µM | TGI [47]: > 100 µM | TGI [48]: > 100 µM | TGI [49]: > 100 µM | TGI [50]: > 100 µM | TGI [51]: > 100 µM | TGI [52]: > 100 µM | TGI [53]: > 100 µM | TGI [54]: > 100 µM | TGI [55]: > 100 µM | TGI [56]: > 100 µM

CC(C)(CN1CCCCC1)C(=O)CC(SCCS(=O)(=O)O)c1ccc(Br)cc1 (configuration not stated)
TGI [1]: 2.71 µM | TGI [2]: 5.73 µM | TGI [3]: 4.78 µM | TGI [4]: 3.1 µM | TGI [5]: 7.2 µM | TGI [7]: 2.82 µM | TGI [8]: 5.73 µM | TGI [9]: 3.46 µM | TGI [10]: 3.58 µM | TGI [11]: 6.51 µM | TGI [12]: 4.55 µM | TGI [13]: 3.04 µM | TGI [14]: 6.91 µM | TGI [16]: 3.57 µM | TGI [17]: 18 µM | TGI [18]: 2.08 µM | TGI [19]: 3.72 µM | TGI [20]: 4.56 µM | TGI [21]: 8.63 µM | TGI [22]: 5.36 µM | TGI [23]: 3.53 µM | TGI [57]: 2.7 µM | TGI [25]: 3.54 µM | TGI [26]: 5.05 µM | TGI [27]: 3.38 µM | TGI [28]: 7.62 µM | TGI [29]: 8.75 µM | TGI [30]: 5.9 µM | TGI [31]: 4.48 µM | TGI [32]: 2.9 µM | TGI [34]: 4.06 µM | TGI [35]: 9.34 µM | TGI [36]: 5.96 µM | TGI [37]: 4.66 µM | TGI [38]: 2.71 µM | TGI [39]: 5.48 µM | TGI [40]: 16.7 µM | TGI [41]: 3.96 µM | TGI [42]: 4.37 µM | TGI [43]: 8.7 µM | TGI [44]: 3.32 µM | TGI [46]: 2.97 µM | TGI [47]: 5.44 µM | TGI [48]: 6.16 µM | TGI [49]: 77.7 µM | TGI [51]: 7.97 µM | TGI [52]: 3.16 µM | TGI [53]: 11.5 µM | TGI [54]: 3.69 µM | TGI [55]: 2.99 µM | TGI [56]: 2.07 µM
